Values joined by “and” are separate entries in the source; they are usually repeats but may differ in a detail not shown here. Identical values can stand only once.
Key:
[1] = test system: CGNH-89 human glioblastoma; assay: Growth inhibition on glioblastoma in vivo, CGNH-89 transplanted subcutaneously in nude mice; conditions: 100 mg/kg intraperitoneally for 14 days vs PBS; days 11 and 13 after onset and days 2, 4, 6, 8 after completion of administration
Experimental: Nude mice (5-6 weeks old) were used at this experiment. 10^7 cells of CGNH-89 used in Example 1 were transplanted subcutaneously in the nude mice. On the next day of transplantation, the mice were divided randomly in two groups; a group (n=12) to be administered with 100 mg/kg compound A and a group (n=12) to be administered with PBS (phosphate buffered saline). The drug was administered repeatedly intraperitoneally for 14 days starting on the next day of transplantation. Up to day 8 after the completion of the administration, the mice were observed. The tumor size was measured every two days with a vernier micrometer, to calculate the volume according to the formula (length×width^2)×½.
The results are shown in mean±standard deviation and statistically analyzed by the Student's t-test. The significance level was set at p<0.05.

C6 and RG2 glioma = C6 and RG2 glioma transplanted rats; cited from earlier work
[2] = test system: Human glioblastoma cell (CGNH-89 cell line); assay: Apoptosis by TUNEL method in human glioblastoma cells in vitro; format: cell-based
Experimental: (§1) Human glioblastoma cell (CGNH-89 cell line) was used at this experiment. These cells were randomly divided in the following three groups: a group of a glutamate-free medium (no glutamate group; control group); a group of the glutamate-free medium added 100 μM glutamate (100 μM glutamate group); a group of the glutamate-free medium added 100 μM glutamate and 20 μM NBQX (100 μM glutamate+20 μM NBQX group). The cells were incubated for 48 hours. The CGNH-89 cell was cultured in DMEM (Dulbecco's modified Eagle's medium) supplemented with 10% dialyzed fetal calf serum.
(§2) CGNH-89 cell line was established through resection from the tumor at the right front lobe of a person according to the Explant method by Nicolas et al. (Science 196, 60-63, 1977). […] Additionally, the mRNAs of GluR1 through GluR4 were analyzed with antibodies against the AMPA receptor subunits GluR1, GluR2, GluR3 and GluR4 and RT-PCR. Consequently, the cell line expresses GluR1 and GluR4 but not expresses GluR2 and GluR3. As described above, the cell line has the same profile as that of the cell of primary glioblastoma de novo.
(§3) The anti-tumor action was evaluated by calculating the apoptosis score by TUNEL method (terminal deoxynucleotide transferase (TdT)-mediated dUTP nick end labeling) 48 hours after culturing. Additionally, proliferation of the human glioblastoma cell was evaluated, using the antibody Ki67.
(§4) The results are shown as mean±standard deviation and statistically analyzed by the Student's t-test. Significance level was set at p<0.05.

[3] = test system: Human glioblastoma cell (CGNH-89 cell line); assay: Proliferation of human glioblastoma cells by Ki67 antibody staining in vitro; format: cell-based
Experimental: as §1, §2, §3, §4

[4] = 20 μM NBQX + 100 μM glutamate, 48 hours incubation, mean±SD
[5] = 20 μM NBQX with 100 μM glutamate, 48 hours
[6] = 100 μM glutamate alone added to glutamate-free medium, 48 hours

O.O=C(O)Cn1c(=O)c(=O)[nH]c2cc([N+](=O)[O-])c(-n3ccnc3)cc21 [Compound A, [7-(1H-imidazol-1-yl)-6-nitro-2,3-dioxo-3,4-dihydroquinoxalin-1 (2H)-yl]acetic acid•monohydrate]
tumor growth inhibition (tumor volume) [1]: significant tumor growth inhibition

C[C@]12N[C@H](Cc3ccccc31)c1ccccc12 [MK-801]
proliferation inhibition (C6 and RG2 glioma): exert a proliferation inhibition

NS(=O)(=O)c1cccc2c1c([N+](=O)[O-])cc1nc(O)c(O)nc12 [NBQX, 2,3-dihydroxy-6-nitro-7-sulfamoyl-benzo(F)-quinoxaline]
TUNEL-SCORE (ratio of apoptosis) [2, 4]: 13.0 ± 2.0% | effect on glutamate-induced suppression of apoptosis [2, 5]: induced the apoptosis | staining index with Ki-67 (proliferation inhibiting activity) [3, 4]: 2.0 ± 1.0% | effect on glutamate-induced proliferative activity [3, 5]: suppressed the glutamate-induced proliferative activity

N[C@@H](CCC(=O)O)C(=O)O [glutamate]
TUNEL-SCORE (ratio of apoptosis) [2, 6]: 3% and 3.0 ± 2.0% | staining index with Ki-67 (proliferation inhibiting activity) [3, 6]: 18.5% and 18.5 ± 3.0%

CC12CC3CC(C)(C1)CC(N)(C3)C2 [memantin]
proliferation inhibition (C6 and RG2 glioma): exert a proliferation inhibition
